Measured values as given in PMC8080595, “Discovery of a novel RORγ antagonist with skin-restricted exposure for topical treatment of mild to moderate psoriasis” (Scientific Reports, 2021).

How the values were obtained:
[1] = test system: IL-17 secretion in mouse splenocyte; assay: Mouse IL-17 production assay using mouse splenocyte; type: cell-based; details: Th17 differentiation, 72 h, n = 3, read-out: inhibition of secretion of IL-17 in mouse splenocyte, average IC50
Procedure: To evaluate the impact of SHR168442 on IL-17 secretion in mouse cells, the mouse Th17 cell differentiation kit from R&D Systems was used to polarize the mouse spleen cells. Differentiation of Th17 cells in mouse splenocyte for 72 h was confirmed by secretion of IL-17 in culture supernatant, 93 pg/mL in average (2.7 pg/mL without differentiation), a 34-fold increase of IL-17 secretion.
Mouse splenocytes (Zenbio) were stimulated by Mouse Th17 Differentiation Media (R&D Systems) according to the manufacturer’s protocol. On day 5, compounds were added and then incubated for 72 h, and IL-17 in the supernatant was measured using IL-17A homodimer (mouse) AlphaLISA detection kit (Perkin Elmer) according to the manufacturer’s protocol.

[2] = target: T1, RORγ (Homo sapiens, UniProt P51449); assay: RORγ luciferase reporter assay; type: cell-based; details: nuclear reporter assay, n = 3; read-out: inhibition of the RORγ transcriptional activity, average IC50
T1 sequence (P51449 260-518 limits assumed): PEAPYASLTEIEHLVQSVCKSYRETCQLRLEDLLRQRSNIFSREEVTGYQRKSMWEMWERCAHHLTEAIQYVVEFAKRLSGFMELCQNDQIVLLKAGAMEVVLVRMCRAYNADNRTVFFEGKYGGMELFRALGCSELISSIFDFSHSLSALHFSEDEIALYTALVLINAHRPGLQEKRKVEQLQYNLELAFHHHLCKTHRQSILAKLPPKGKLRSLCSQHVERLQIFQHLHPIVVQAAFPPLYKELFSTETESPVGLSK
Procedure: Ursolic acid was used as a positive control.
Cell-based luciferase reporter assays for RORα and RORγ (Indigo Biosciences) were performed according to the manufacturer’s protocol.

[3] = target: T2, hERG (Homo sapiens, UniProt Q12809); assay: SAFETYscan47 Ion Channel; type: cell-based; details: Blocker; 3 µM
T2 construct: purchased DiscoverX (Eurofins) SAFETYscan47
Procedure: (§1) To further profile any off-target activity, we counter-screened SHR168442 in SAFETYscan47 panel, compiled by DiscoverX based on the recommendation by major pharmaceutical companies. SHR168442 was screened at 3 µM in duplicates.

[4] = test system: GABAA; assay: SAFETYscan47 Ion Channel; type: cell-based; details: 3 µM
Procedure: as §1

[5] = test system: IL-17 secretion from human PBMCs; assay: Human IL-17 production assay using human PBMC; type: cell-based; details: cytostim stimulation 72 h
Procedure: To confirm cellular on-target effects, we investigated the inhibition of selected RORγ antagonists on RORγ-regulated IL-17 secretion using human PBMC. Human IL-17-producing cells were readily formed following cytostim stimulation. In human PBMC stimulated with cytostim for 72 h, differentiation of Th17 cells was confirmed by increased secretion of IL-17 (291 pg/mL) in cell culture supernatant compared to basal level of IL-17 (20 pg/mL IL-17 without cytostim stimulation), […] of IL-17 secretion.
Human PBMCs (Zenbio) in TexMACS media were stimulated by cytostim (Miltenyi) for 72 h following the vendor's instruction. Human IL-17A in cell culture supernatant was measured using AlphaLISA human IL-17A Biotin-free detection kit (Perkin Elmer) according to the manufacturer’s protocol.

[6] = Liver microsomal stability, human; type: in vitro ADME; details: human, liver microsomes, pH 7.4; 1 µM compound, 0.5 mg/ml microsome, NADPH, 37 °C; read-out: Liver microsomal stability, t1/2, Human
Procedure: (§2) The compound was mixed with 0.5 mg/ml human liver microsome (Thermal Fisher) at a final concentration of 1 µM in 100 mM potassium phosphate buffer, pH 7.4. The reactions were initiated by the addition of 1 mM NADPH. Samples in duplicate were incubated at 37 °C with mixing. 100 µL aliquots were transferred after 0, 5, 10, 30, 45, 60 minutes to a new tube with 300 µL acetonitrile, incubated on ice for 30 minutes, centrifuged at 1800×g at 4 °C for 10 minutes. The supernatants were transferred to glass vials subjected to LC/MS analysis. Peak areas were measured to calculate half-life according to the formula t1/2 = − 0.693/slope of linear regression analysis of ln [concentration] versus incubation time. Similar methods were applied to access mouse and rat liver microsomal stability of the compounds.

[7] = in vivo; details: female, C57BL/6, mouse
Procedure: The dermal PK studies of Compound 1 in Vaseline were performed in dorsal skin of female C57BL/6 and male BALB/c mice via topical route. The skin (1.5 cm × 2 cm) was shaved one day prior to the dosing. At tissue collecting time point, the skin surface was decontaminated (twice with hand soap, twice with water, alternatively, and dried with tissue swabs). Stratum corneum is removed with tape strips for five times. The tissues were homogenized for PK analyses of Compound 1 by LC/MS.

[8] = Liver microsomal stability, rat; type: in vitro ADME; details: liver microsomes, pH 7.4, read-out: Liver microsomal stability, t1/2, Rat
Procedure: as §2

[9] = Liver microsomal stability, mouse; type: in vitro ADME; details: liver microsomes, pH 7.4, read-out: Liver microsomal stability, t1/2, Mouse
Procedure: as §2

[10] = Oral PK in SD rats; type: in vivo; details: male, rat, plasma, 2 mg/kg oral
Procedure: Compounds were dissolved in 5% DMSO, 5% tween 80 and then added 90% saline. Male SD rats were dosed with the compound via oral (2 mg/kg or 5 mg/kg) routes, respectively after fasting overnight. Blood of the animals were collected at indicated time post dosing. Blood samples were then prepared for plasma and analyzed for the compounds using validated LC/MS assays. The experimental protocol used in this study was approved by IACUC. The experiments were conducted in accordance with the Guiding Principles for the Care and Use of Laboratory Animals and complied with the ARRIVE guidelines.

T2 sequence (Q12809 whole entry): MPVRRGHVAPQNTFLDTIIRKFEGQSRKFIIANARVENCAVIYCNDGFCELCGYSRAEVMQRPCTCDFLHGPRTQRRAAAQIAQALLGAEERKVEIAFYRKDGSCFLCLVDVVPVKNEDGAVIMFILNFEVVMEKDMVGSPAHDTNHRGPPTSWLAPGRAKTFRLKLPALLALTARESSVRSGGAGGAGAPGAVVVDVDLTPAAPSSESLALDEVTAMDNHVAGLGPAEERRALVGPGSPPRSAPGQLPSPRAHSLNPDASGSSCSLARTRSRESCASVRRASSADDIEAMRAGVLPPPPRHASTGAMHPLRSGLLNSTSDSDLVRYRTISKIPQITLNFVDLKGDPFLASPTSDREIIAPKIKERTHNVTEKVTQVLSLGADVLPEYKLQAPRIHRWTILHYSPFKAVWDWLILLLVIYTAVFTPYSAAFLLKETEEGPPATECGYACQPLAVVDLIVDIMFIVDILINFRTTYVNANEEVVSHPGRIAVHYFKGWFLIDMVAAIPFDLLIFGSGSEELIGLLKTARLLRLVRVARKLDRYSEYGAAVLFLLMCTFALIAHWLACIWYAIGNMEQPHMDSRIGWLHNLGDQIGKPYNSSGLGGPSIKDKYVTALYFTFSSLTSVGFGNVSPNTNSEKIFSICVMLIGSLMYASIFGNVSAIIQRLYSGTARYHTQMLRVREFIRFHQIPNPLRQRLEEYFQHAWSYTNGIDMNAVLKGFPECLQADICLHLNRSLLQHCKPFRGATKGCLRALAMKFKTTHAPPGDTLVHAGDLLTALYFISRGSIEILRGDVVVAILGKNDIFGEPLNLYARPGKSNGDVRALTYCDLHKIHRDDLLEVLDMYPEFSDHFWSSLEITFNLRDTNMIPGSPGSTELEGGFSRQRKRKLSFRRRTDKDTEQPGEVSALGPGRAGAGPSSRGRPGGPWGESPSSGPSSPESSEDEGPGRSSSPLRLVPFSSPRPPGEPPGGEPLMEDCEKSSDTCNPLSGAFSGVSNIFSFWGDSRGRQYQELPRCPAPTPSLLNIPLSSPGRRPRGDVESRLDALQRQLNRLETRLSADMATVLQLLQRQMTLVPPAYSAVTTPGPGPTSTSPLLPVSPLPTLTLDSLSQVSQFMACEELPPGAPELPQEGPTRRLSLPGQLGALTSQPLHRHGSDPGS

CCS(=O)(=O)c1ccc([C@H](CCO)c2nc3c(Cl)c(N4CCC(F)(F)CC4)c(Cl)cc3[nH]2)cc1 [SHR168442, (S)-3-(4,6-dichloro-5-(4,4-difluoropiperidin-1-yl)-1H-benzo[d]imidazol-2-yl)-3-(4-(ethylsulfonyl)phenyl)propan-1-ol]
IC50 [1]: 54 ± 12 nM
IC50 [2]: 15 ± 9 nM
% Response Average [3]: 4.9%
% Response Replicate 1 [3]: 6.5%
% Response Replicate 2 [3]: 3.2%
% Response Average ([4]; Blocker): 7.4%
% Response Replicate 1 ([4]; Blocker): 4.6%
% Response Replicate 2 ([4]; Blocker): 10.1%
% Response Average ([4]; Opener): 2.5%
% Response Replicate 1 ([4]; Opener): 3.2%
% Response Replicate 2 ([4]; Opener): 1.9%
EC50 [5]: 20 ± 6 nM
IC50 [5]: 20 nM
half-life at 1 µM [6]: 2.3 min
Exposure in plasma ([7]; 3 h): 7.0 ng/mL
Exposure in skin ([7]; 6 h): 18,500 ng/g
concentration at 3 h ([7]; Exposure in plasma): 8.8 ng/mL
concentration at 6 h ([7]; Exposure in skin): 9710 ng/g
half-life at 1 µM [8]: 8.6 min
half-life at 1 µM [9]: 6.2 min
AUC ([10]; read-out: Exposure in SD Rat, AUC): 59 ng·h/mL
Cmax ([10]; read-out: Exposure in SD Rat, Cmax): 9.5 ng/mL
half-life ([10]; read-out: Exposure in SD Rat, t1/2 (converted)): 372 min
